Source: patent publication US12202835B2, “Substituted aromatic ring-linked dioxinoquinazolines and dioxinoquinolines as kinase inhibitors” (BEIJING SCITECH-MQ PHARMACEUTICALS LIMITED, priority 2018, dated 2025)

Tests used:
Ba/F3-AXL cells = experiment: Assay for inhibiting the proliferation of Ba/F3-AXL cells (CCK-8); assay type: cell-based; conditions: 72 hours of incubation, medium with 100 ng/mL hGas6, CCK-8
Protocol: The values were then imported into Graphpad Prism 5 software for curve fitting, and IC50 was calculated.

TRKA kinase = TRKA kinase (Homo sapiens (Human), UniProt P04629); experiment: Assay of small molecular compounds for inhibiting the activity of TRKA kinase (LANCE TR-FRET); assay type: biochemical
Procedure, shortened: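 TRKA (supplied as 2 nM 2× solution) was pre-reacted with compounds for 5 min at room temperature before a 4× ULight-TK peptide/ATP mix (400 nM/40 μM) started the 60-min dark reaction at 1% DMSO. After stop and 60-min detection, TR-FRET was read.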

EBC1 cells = experiment: Assay for inhibiting the proliferation of EBC1 cells (CCK-8); assay type: cell-based; conditions: Homo sapiens, EBC-1
Procedure, shortened: (§1)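 Cells seeded in 96-well plates overnight, then exposed 72 h to 9 three-fold dilutions of compound (0.25% DMSO final). Viability by CCK-8 (1-2 h at 37° C., OD 450 nm), survival normalized to untreated and cell-free blanks; IC50 by curve fitting.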

Ba/F3 LMNA-NTRK1 cells = experiment: Assay for inhibiting the proliferation of Ba/F3 LMNA-NTRK1 cells (CCK-8); assay type: cell-based; conditions: Mus musculus, BaF3
Procedure, shortened: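 Viability was read as absorbance at 450 nm following 1–2 h CCK-8 incubation at 37 °C, relative to control and blank wells.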

MHCC97H cells = experiment: Assay for inhibiting the proliferation of MHCC97H cells (CCK-8); assay type: cell-based; conditions: Homo sapiens
Procedure, shortened: as §1

Chain of TRKA kinase (P04629 33-796): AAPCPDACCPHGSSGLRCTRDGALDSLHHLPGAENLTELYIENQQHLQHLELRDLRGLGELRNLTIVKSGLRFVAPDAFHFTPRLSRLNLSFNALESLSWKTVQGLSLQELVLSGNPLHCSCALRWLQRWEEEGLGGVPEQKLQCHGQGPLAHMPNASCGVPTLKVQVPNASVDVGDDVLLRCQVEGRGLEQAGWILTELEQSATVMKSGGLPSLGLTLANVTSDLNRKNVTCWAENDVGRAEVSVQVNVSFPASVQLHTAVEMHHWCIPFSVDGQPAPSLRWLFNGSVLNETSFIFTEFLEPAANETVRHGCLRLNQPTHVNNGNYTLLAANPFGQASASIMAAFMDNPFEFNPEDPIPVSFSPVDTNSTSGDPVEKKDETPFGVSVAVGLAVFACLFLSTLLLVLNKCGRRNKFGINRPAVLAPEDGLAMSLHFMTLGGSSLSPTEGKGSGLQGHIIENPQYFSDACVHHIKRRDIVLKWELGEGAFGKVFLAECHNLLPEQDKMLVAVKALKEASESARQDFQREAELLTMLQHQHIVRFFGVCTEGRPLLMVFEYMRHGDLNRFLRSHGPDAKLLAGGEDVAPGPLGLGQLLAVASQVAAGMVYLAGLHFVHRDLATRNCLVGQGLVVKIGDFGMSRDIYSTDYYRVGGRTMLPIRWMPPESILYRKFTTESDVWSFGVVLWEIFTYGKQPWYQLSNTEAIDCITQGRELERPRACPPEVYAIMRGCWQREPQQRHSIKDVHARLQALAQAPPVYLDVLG

Compound	IC50 (Ba/F3-AXL cells) [nM]	IC50 (TRKA kinase) [nM]	IC50 (Ba/F3 LMNA-NTRK1 cells) [nM]	IC50 (EBC1 cells) [nM]	IC50 (MHCC97H cells) [nM]
CCOc1ccn(-c2ccc(F)cc2)c(=O)c1C(=O)Nc1ccc(Oc2ccnc3cc(OCCCN4CCOCC4)c4c(c23)OCCO4)cc1Cl [Example 73, N-(2-chloro-4-((5-(3-morpholinopropoxy)-2,3-dihydro-[1,4]dioxino[2,3-f]quinolin-10-yl)oxy)phenyl)-4-ethoxy-1-(4-fluorophenyl)-2-oxo-1,2-dihydropyridine-3-carboxamide]	< 50	< 50	< 50	≤ 50	≤ 50
COCCCOc1cc2nccc(Oc3ccc(NC(=O)c4cn(C)c(=O)n(-c5ccc(F)cc5)c4=O)cc3F)c2c2c1OCCO2 [Example 80, N-(3-fluoro-4-((5-(3-methoxypropoxy)-2,3-dihydro-[1,4]dioxino[2,3-f]quinolin-10-yl)oxy)phenyl)-3-(4-fluorophenyl)-1-methyl-2,4-dioxo-1,2,3,4-tetrahydropyrimidine-5-carboxamide]	< 50	< 50	< 50	≤ 50	≤ 50
CCOc1ccn(-c2ccc(F)cc2)c(=O)c1C(=O)Nc1ccc(Oc2ccnc3cc(OCCCN4CCS(=O)(=O)CC4)c4c(c23)OCCO4)c(F)c1 [Example 51, N-(4-((5-(3-(1,1-dioxidothiomorpholino)propoxy)-2,3-dihydro-[1,4]dioxino[2,3-f]quinolin-1 0-yl)oxy)-3-fluorophenyl)-4-ethoxy-1-(4-fluorophenyl)-2-oxo-1,2-dihydropyridine-3-carboxamide]	< 50	< 50	< 50	≤ 50	≤ 50
CCOc1ccn(-c2ccc(F)cc2)c(=O)c1C(=O)Nc1ccc(Oc2ccnc3cc(OCCCOC)c4c(c23)OCCO4)c(F)c1 [Example 55, N-(4-((5-(3-methoxypropoxy)-2,3-dihydro-[1,4]dioxino[2,3-f]quinolin-10-yl)oxy)-3-fluorophenyl)-4-ethoxy-1-(4-fluorophenyl)-2-oxo-1,2-dihydropyridine-3-carboxamide]	< 50	< 50	< 50	≤ 50	≤ 50

More lines, main results first:

IC50 (Ba/F3-AXL cells) [nM]	IC50 (TRKA kinase) [nM]	IC50 (Ba/F3 LMNA-NTRK1 cells) [nM]	Compound	IC50 (EBC1 cells) [nM]	IC50 (MHCC97H cells) [nM]
< 50	< 50	< 50	CCOc1ccn(-c2ccc(F)cc2)c(=O)c1C(=O)Nc1ccc(Oc2ccnc3cc(OCCCN4CCC(C)(O)CC4)c4c(c23)OCCO4)c(F)c1 [Example 69, N-(4-((5-(3-(4-hydroxy-4-methylpiperidin-1-yl)propoxy)-2,3-dihydro-[1,4]dioxino[2,3-f]quinolin-10-yl)oxy)-3-fluorophenyl)-4-ethoxy-1-(4-fluorophenyl)-2-oxo-1,2-dihydropyridine-3-carboxamide]	≤ 50	50 to 200
< 50	< 50	< 50	CCOc1ccn(-c2ccc(F)cc2)c(=O)c1C(=O)Nc1ccc(Oc2ccnc3cc(OCCO)c4c(c23)OCCO4)c(F)c1 [Example 53, N-(4-((5-(2-hydroxyethoxy)-2,3-dihydro-[1,4]dioxino[2,3-f]quinolin-10-yl)oxy)-3-fluorophenyl)-4-ethoxy-1-(4-fluorophenyl)-2-oxo-1,2-dihydropyridine-3-carboxamide]	≤ 50	≤ 50
< 50	< 50	50 to 200	CCOc1ccn(-c2ccc(F)cc2)c(=O)c1C(=O)Nc1ccc(Oc2ccnc3cc(OC4CCOCC4)c4c(c23)OCCO4)c(F)c1 [Example 66, N-(4-((5-((tetrahydropyran-4-yl)oxy)-2,3-dihydro-[1,4]dioxino[2,3-f]quinolin-10-yl)oxy)-3-fluorophenyl)-4-ethoxy-1-(4-fluorophenyl)-2-oxo-1,2-dihydropyridine-3-carboxamide]	≤ 50	≤ 50
< 50	< 50	< 50	CCn1cc(C(=O)Nc2ccc(Oc3ccnc4cc(OCCOC)c5c(c34)OCCO5)c(F)c2)c(=O)n(-c2ccc(F)cc2)c1=O [Example 44, N-(3-fluoro-4-((5-(2-methoxyethoxy)-2,3-dihydro-[1,4]dioxino[2,3-f]quinolin-10-yl)oxy)phenyl)-3-(4-fluorophenyl)-1-ethyl-2,4-dioxo-1,2,3,4-tetrahydropyrimidine-5-carboxamide]	≤ 50	≤ 50
